The target of data set [1] is T1, A-Raf (Homo sapiens, UniProt P10398).
T1 sequence (P10398 1-606): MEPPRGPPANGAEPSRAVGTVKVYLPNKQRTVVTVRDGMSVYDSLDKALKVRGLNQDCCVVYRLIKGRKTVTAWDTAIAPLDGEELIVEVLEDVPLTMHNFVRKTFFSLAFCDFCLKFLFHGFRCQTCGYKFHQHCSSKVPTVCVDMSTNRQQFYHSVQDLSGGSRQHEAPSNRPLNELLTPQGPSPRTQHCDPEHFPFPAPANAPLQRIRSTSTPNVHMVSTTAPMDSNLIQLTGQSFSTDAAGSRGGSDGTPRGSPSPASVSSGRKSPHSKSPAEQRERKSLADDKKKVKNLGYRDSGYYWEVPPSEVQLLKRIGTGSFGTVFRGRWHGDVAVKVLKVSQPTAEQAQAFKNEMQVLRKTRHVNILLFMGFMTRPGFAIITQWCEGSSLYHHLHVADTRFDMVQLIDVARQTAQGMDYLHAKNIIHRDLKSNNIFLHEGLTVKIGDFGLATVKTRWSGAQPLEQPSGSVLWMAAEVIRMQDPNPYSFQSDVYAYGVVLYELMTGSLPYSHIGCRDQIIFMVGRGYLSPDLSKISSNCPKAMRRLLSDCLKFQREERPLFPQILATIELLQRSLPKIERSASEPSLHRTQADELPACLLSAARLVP
The data set is described as follows: A-Raf biochemical kinase inhibition (AlphaScreen, biotin-MEK1 substrate). The settings on record: 100 μM ATP. The method in brief: (§1)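 Raf kinases phosphorylating biotin-MEK1, reaction started with ATP at 100 μM final. Compounds tested at 8 points by serial dilution from a 0.1 mM DMSO stock.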
For orientation: Alpha assays give light when donor and acceptor beads are brought close together.

For data set [2], the target named is B-Raf V600E (Homo sapiens, UniProt P15056, V600E). Put plainly: B-Raf V600E biochemical kinase inhibition (AlphaScreen, biotin-MEK1 substrate). The settings on record: 100 μM ATP. The method in brief: as §1
B-Raf V600E, sequence (P15056 whole entry V600E): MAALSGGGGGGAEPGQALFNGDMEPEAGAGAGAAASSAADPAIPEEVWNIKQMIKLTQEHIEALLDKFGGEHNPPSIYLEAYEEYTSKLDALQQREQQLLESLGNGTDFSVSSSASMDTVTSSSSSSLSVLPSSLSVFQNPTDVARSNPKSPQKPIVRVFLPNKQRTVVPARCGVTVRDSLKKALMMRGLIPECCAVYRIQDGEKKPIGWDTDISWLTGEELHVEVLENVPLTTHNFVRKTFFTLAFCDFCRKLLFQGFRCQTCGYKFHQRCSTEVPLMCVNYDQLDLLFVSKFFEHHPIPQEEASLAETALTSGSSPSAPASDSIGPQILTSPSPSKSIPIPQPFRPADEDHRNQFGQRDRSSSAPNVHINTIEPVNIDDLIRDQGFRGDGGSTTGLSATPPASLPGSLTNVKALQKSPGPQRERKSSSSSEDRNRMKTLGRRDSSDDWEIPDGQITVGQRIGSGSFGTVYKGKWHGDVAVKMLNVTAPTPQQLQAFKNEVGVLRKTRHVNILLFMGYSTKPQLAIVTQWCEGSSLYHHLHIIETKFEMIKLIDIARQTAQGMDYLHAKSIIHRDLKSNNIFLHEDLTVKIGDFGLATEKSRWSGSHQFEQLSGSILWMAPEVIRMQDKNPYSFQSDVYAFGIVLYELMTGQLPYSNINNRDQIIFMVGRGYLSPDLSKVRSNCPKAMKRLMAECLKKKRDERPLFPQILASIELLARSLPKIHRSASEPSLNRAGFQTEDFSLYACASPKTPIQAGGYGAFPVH
Data set [3] has as its system Colo205 xenograft. Put plainly: Colo205 xenograft mouse model, tumor growth inhibition. To be noted: COLO 205, 336 h, female nu/nu mice, 10 mg/kg daily for fourteen days. In kind it is in vivo. As for the experimental part: Tumor growth is monitored to approximately 100 mg size, and mice are distributed to treatment groups such that the mean tumor burden within a group is within 10% of the overall mean tumor burden. […] Mice are observed daily, with tumor burden and body weights measured twice a week. Animals with tumor burden above 1500-2000 mg and any animals in moribund condition are euthanized. The average tumor growth of vehicle control group mice is compared to the average tumor growth of the test compound mice. Percent tumor growth inhibition is calculated as 100×[(tumor growth control-tumor growth test compound)/tumor growth control].

Data set [4] is described as follows: Relative solubility by turbidity in aqueous buffers of varying pH. In kind it is physicochemical. The settings on record: for turbidity threshold (L, M, H) 7.4: HEPES pH 7.4; for turbidity threshold (L, M, H) 4.5: SIF pH 4.5; for turbidity threshold (L, M, H) 6.8: SIF pH 6.8; for turbidity threshold (L, M, H) 1.4: buffer pH 1.4 (SGF). The method in brief:
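Turbidity endpoint: concentration where optical density at 490, 535 and 650 nm exceeds 0.01, three-wavelength average used. Buffers at pH 1.5, 4.5, 6.8 and 7.4; DMSO serial dilutions of 25 mM stock spiked 1 μL into 99 μL buffer. Low <31.3, moderate 31.3–250, high >250 μM.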

Data set [5] deals with CYP2C19 (Homo sapiens, UniProt P33261). The data set is described as follows: CYP2C19 inhibition (fluorescent substrate). In kind it is in vitro ADME. To be noted: CYP2C19, CEC substrate; read-out: Cyp IC50 2C19. The method in brief:
(§2)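 Human CYP activity was followed by the fluorescence of the metabolized product of a known substrate, which falls as metabolism is inhibited. Compounds from 100 mM DMSO stocks were serially diluted 1:1 over 10 points in co-factor mix and preincubated 10 min at 37 °C. IC50 was fitted from signal versus concentration.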

The target of data set [6] is CYP2C9 (Homo sapiens, UniProt P11712). Put plainly: CYP2C9 inhibition (fluorescent substrate). In kind it is in vitro ADME. To be noted: CYP2C9, MFC substrate; read-out: Cyp IC50 2C9. The method in brief:
as §2

Data set [7] deals with c-Raf-1 (Homo sapiens, UniProt P04049). The data set is described as follows: c-Raf-1 biochemical kinase inhibition (AlphaScreen, biotin-MEK1 substrate). To be noted: 100 μM ATP. The method in brief: as §1
c-Raf-1, sequence (P04049 whole entry): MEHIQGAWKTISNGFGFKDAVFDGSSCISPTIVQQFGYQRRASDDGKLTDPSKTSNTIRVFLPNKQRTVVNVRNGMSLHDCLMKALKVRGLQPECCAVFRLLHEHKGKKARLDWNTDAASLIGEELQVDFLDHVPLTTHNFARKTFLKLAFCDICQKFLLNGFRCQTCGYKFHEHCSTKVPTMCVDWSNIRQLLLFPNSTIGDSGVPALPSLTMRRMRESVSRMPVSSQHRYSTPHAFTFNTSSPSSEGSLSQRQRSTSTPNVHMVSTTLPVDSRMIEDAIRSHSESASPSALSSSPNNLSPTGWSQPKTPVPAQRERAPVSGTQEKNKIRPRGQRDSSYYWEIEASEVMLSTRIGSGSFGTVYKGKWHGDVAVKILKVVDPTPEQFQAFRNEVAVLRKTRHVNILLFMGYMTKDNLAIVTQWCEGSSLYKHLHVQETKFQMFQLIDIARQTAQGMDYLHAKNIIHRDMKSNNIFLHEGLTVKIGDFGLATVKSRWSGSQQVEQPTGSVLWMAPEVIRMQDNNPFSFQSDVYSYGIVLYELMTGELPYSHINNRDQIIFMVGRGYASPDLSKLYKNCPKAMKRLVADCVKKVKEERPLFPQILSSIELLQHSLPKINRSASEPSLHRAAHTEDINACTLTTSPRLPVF

As usually defined, the IC50 is the midpoint of a concentration-inhibition curve. In general, inhibition in vivo refers to the percentage by which the read-out fell short of the control. High values mean a strong effect, low ones a weak effect.

CYP2C9, sequence (P11712 whole entry): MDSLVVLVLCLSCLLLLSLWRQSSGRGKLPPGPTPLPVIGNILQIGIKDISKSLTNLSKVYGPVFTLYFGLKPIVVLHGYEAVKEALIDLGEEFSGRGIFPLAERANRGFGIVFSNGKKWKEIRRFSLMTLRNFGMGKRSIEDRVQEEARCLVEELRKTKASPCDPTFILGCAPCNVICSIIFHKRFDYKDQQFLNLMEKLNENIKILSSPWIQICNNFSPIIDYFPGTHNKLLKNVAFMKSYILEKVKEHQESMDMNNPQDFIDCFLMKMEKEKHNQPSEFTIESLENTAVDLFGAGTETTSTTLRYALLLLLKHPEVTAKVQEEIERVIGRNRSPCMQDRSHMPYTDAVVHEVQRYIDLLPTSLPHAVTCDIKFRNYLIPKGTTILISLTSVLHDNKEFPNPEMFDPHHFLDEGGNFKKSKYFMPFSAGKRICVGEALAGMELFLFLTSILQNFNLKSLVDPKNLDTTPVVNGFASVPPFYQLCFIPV
CYP2C19, sequence (P33261 whole entry): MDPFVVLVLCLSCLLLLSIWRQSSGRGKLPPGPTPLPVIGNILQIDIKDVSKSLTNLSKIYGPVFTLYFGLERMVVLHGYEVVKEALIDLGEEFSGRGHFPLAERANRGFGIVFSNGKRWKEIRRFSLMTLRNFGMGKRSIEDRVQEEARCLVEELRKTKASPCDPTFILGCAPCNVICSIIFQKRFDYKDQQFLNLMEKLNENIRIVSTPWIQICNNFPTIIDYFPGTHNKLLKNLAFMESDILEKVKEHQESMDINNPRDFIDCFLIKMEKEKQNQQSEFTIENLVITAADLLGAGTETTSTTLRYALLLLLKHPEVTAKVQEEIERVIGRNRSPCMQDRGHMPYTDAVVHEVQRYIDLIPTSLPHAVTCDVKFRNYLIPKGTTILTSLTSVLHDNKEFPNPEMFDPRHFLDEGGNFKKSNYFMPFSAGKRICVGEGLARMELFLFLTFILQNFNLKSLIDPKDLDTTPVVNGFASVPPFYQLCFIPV

The compound `N#Cc1cnc2[nH]cc(C(=O)c3c(F)ccc(NS(=O)(=O)c4ccccc4F)c3F)c2c1` [P-2011, N-[3-(5-Cyano-1H-pyrrolo[2,3-b]pyridine-3-carbonyl)-2,4-difluoro-phenyl]-2-fluoro-benzenesulfonamide] showed an IC50 in data set [1] of less than 10 nM. The compound also returned an IC50 in data set [2] of less than 10 nM. In data set [3], this compound showed an inhibition in vivo at 10 mg/kg of 72%. Moreover, in data set [4], the “turbidity threshold (L, M, H) 7.4” value is recorded as “M (moderate solubility if the threshold concentration is 31.3 μM to 250 μM)”; the “turbidity threshold (L, M, H) 4.5” value is given as “M (moderate solubility if the threshold concentration is 31.3 μM to 250 μM)”; the “turbidity threshold (L, M, H) 6.8” value is “M (moderate solubility if the threshold concentration is 31.3 μM to 250 μM)”; the “turbidity threshold (L, M, H) 1.4” value is on record as “M (moderate solubility if the threshold concentration is 31.3 μM to 250 μM)”. Further, the IC50 in data set [5] was greater than 10000 nM. Further, in data set [6], the IC50 is greater than 10000 nM.
With `Cc1cnc2[nH]cc(C(=O)c3c(F)ccc(NS(=O)(=O)c4cc(F)ccc4F)c3F)c2c1` [P-2015, N-[2,4-Difluoro-3-(5-methyl-1H-pyrrolo[2,3-b]pyridine-3-carbonyl)-phenyl]-2,5-difluoro-benzenesulfonamide], the IC50 is less than 10 nM in data set [1]; less than 10 nM in data set [2]; less than 10 nM in data set [7]; 5000 to 10000 nM in data set [5]; greater than 10000 nM in data set [6]. For the same compound, the inhibition in vivo at 10 mg/kg in data set [3] was 67%. For the same compound, in data set [4], the “turbidity threshold (L, M, H) 7.4” value was “M (moderate solubility if the threshold concentration is 31.3 μM to 250 μM)”. Besides, the “turbidity threshold (L, M, H) 4.5” value in data set [4] is reported as “L (low solubility if the threshold concentration is <31.3 04)”. In data set [4], the “turbidity threshold (L, M, H) 6.8” value is recorded as “M (moderate solubility if the threshold concentration is 31.3 μM to 250 μM)”. In data set [4], the “turbidity threshold (L, M, H) 1.4” value is listed as “M (moderate solubility if the threshold concentration is 31.3 μM to 250 μM)”.
In the case of `N#Cc1cnc2[nH]cc(C(=O)c3c(F)ccc(NS(=O)(=O)c4ccccc4)c3F)c2c1` [P-2046, N-[3-(5-Cyano-1H-pyrrolo[2,3-b]pyridine-3-carbonyl)-2,4-difluoro-phenyl]-benzenesulfonamide], the IC50 was less than 10 nM in data set [1]; less than 10 nM in data set [2]; less than 10 nM in data set [7]; less than 5000 nM in data set [5]; less than 5000 nM in data set [6]. This compound had an inhibition in vivo at 10 mg/kg in data set [3] of 70%. Moreover, the “turbidity threshold (L, M, H) 7.4” value in data set [4] is “M (moderate solubility if the threshold concentration is 31.3 μM to 250 μM)”. The “turbidity threshold (L, M, H) 4.5” value in data set [4] was “L (low solubility if the threshold concentration is <31.3 04)”. Further, in data set [4], the “turbidity threshold (L, M, H) 6.8” value is recorded as “M (moderate solubility if the threshold concentration is 31.3 μM to 250 μM)”. The “turbidity threshold (L, M, H) 1.4” value in data set [4] is given as “L (low solubility if the threshold concentration is <31.3 04)”.
Take `N#Cc1cnc2[nH]cc(C(=O)c3cccc(NS(=O)(=O)c4ccccc4)c3F)c2c1` [P-2056, N-[3-(5-Cyano-1H-pyrrolo[2,3-b]pyridine-3-carbonyl)-2-fluoro-phenyl]-benzenesulfonamide]: the IC50 was less than 10 nM in data set [1], less than 10 nM in data set [2], less than 10 nM in data set [7] and greater than 10000 nM in data set [5]. In addition, in data set [3], the inhibition in vivo at 10 mg/kg worked out at 66%. Further, the “turbidity threshold (L, M, H) 7.4” value in data set [4] was “M (moderate solubility if the threshold concentration is 31.3 μM to 250 μM)”. Also, in data set [4], the “turbidity threshold (L, M, H) 4.5” value is “L (low solubility if the threshold concentration is <31.3 04)”. In addition, in data set [4], the “turbidity threshold (L, M, H) 6.8” value is on record as “M (moderate solubility if the threshold concentration is 31.3 μM to 250 μM)”. The “turbidity threshold (L, M, H) 1.4” value in data set [4] was “L (low solubility if the threshold concentration is <31.3 04)”.
As to `Cc1cnc2[nH]cc(C(=O)c3c(F)ccc(NS(=O)(=O)c4cccnc4)c3F)c2c1` [P-2069, Pyridine-3-sulfonic acid [2,4-difluoro-3-(5-methyl-1H-pyrrolo[2,3-b]pyridine-3-carbonyl)-phenyl]-amide], the IC50 in data set [1] is less than 100 nM; in data set [2] it was less than 10 nM; in data set [7], less than 10 nM; in data set [5], greater than 10000 nM; in data set [6] it was less than 5000 nM. Also, testing at 10 mg/kg in data set [3] gave an inhibition in vivo of 29%. The “turbidity threshold (L, M, H) 7.4” value in data set [4] is given as “H (high solubility if the threshold concentration is >250 μM)”. Moreover, in data set [4], the “turbidity threshold (L, M, H) 4.5” value is recorded as “M (moderate solubility if the threshold concentration is 31.3 μM to 250 μM)”. Further, the “turbidity threshold (L, M, H) 6.8” value in data set [4] is “M (moderate solubility if the threshold concentration is 31.3 μM to 250 μM)”. In data set [4], the “turbidity threshold (L, M, H) 1.4” value is on record as “H (high solubility if the threshold concentration is >250 μM)”.
`CCCS(=O)(=O)Nc1ccc(F)c(C(=O)c2c[nH]c3ncc(-c4cnc(N(C)C)nc4)cc23)c1F` [P-2196, Propane-1-sulfonic acid {3-[5-(2-dimethylamino-pyrimidin-5-yl)-1H-pyrrolo[2,3-b]pyridine-3-carbonyl]-2,4-difluoro-phenyl}-amide]: the IC50 in data set [1] was less than 10 nM; in data set [2], less than 10 nM; in data set [7] it was less than 10 nM; in data set [5], greater than 10000 nM; in data set [6], 5000 to 10000 nM. In data set [3], this compound returned an inhibition in vivo at 10 mg/kg of 71%. In data set [4], the “turbidity threshold (L, M, H) 7.4” value is recorded as “L (low solubility if the threshold concentration is <31.3 04)”. Besides, the “turbidity threshold (L, M, H) 4.5” value in data set [4] is given as “L (low solubility if the threshold concentration is <31.3 04)”. Moreover, in data set [4], the “turbidity threshold (L, M, H) 6.8” value is “L (low solubility if the threshold concentration is <31.3 04)”. Further, the “turbidity threshold (L, M, H) 1.4” value in data set [4] was “M (moderate solubility if the threshold concentration is 31.3 μM to 250 μM)”.
Compound `CCCS(=O)(=O)Nc1ccc(F)c(C(=O)c2c[nH]c3ncc(-c4cnc(C)nc4)cc23)c1F` [P-2211, Propane-1-sulfonic acid {2,4-difluoro-3-[5-(2-methyl-pyrimidin-5-yl)-1H-pyrrolo[2,3-b]pyridine-3-carbonyl]-phenyl}-amide] displayed an IC50 in data set [2] of less than 10 nM. In data set [7], this compound had an IC50 of less than 10 nM. This compound also displayed an inhibition in vivo at 10 mg/kg in data set [3] of 0%. In addition, in data set [4], the “turbidity threshold (L, M, H) 7.4” value was “M (moderate solubility if the threshold concentration is 31.3 μM to 250 μM)”; the “turbidity threshold (L, M, H) 4.5” value is listed as “M (moderate solubility if the threshold concentration is 31.3 μM to 250 μM)”; the “turbidity threshold (L, M, H) 6.8” value is reported as “M (moderate solubility if the threshold concentration is 31.3 μM to 250 μM)”; the “turbidity threshold (L, M, H) 1.4” value was “M (moderate solubility if the threshold concentration is 31.3 μM to 250 μM)”. The IC50 in data set [5] lay in the range of 5000 to 10000 nM. The IC50 in data set [6] was greater than 10000 nM.
`CCCS(=O)(=O)Nc1ccc(F)c(C(=O)c2c[nH]c3ncc(-c4ccc(OCCN5CCOCC5)nc4)cc23)c1F` [P-2232, Propane-1-sulfonic acid (2,4-difluoro-3-{5-[6-(2-morpholin-4-yl-ethoxy)-pyridin-3-yl]-1H-pyrrolo[2,3-b]pyridine-3-carbonyl}-phenyl)-amide]: the IC50 in data set [1] is less than 10 nM; in data set [2], less than 10 nM; in data set [7] it was less than 10 nM; in data set [5], greater than 10000 nM; in data set [6], 5000 to 10000 nM. The compound also yielded an inhibition in vivo at 10 mg/kg in data set [3] of 54%. The “turbidity threshold (L, M, H) 7.4” value in data set [4] is on record as “L (low solubility if the threshold concentration is <31.3 04)”. Besides, in data set [4], the “turbidity threshold (L, M, H) 4.5” value is reported as “M (moderate solubility if the threshold concentration is 31.3 μM to 250 μM)”. Also, the “turbidity threshold (L, M, H) 6.8” value in data set [4] was “L (low solubility if the threshold concentration is <31.3 04)”. For the same compound, the “turbidity threshold (L, M, H) 1.4” value in data set [4] is on record as “M (moderate solubility if the threshold concentration is 31.3 μM to 250 μM)”.
